Where only a bound is given, the exact number is not on record here.

Our source for the melting point values is a melting point compilation (Tetko et al.; mined from patent text by program, amines drawn as free bases though some values may be those of a salt).

Consider `O=C(O)C1CC(=C2CCCN(c3ccccc3)C2=O)c2ccc(Cl)cc2N1` (stereo not drawn), for which the melting point (usually the temperature of the solid-liquid transition) is 130 to 133 °C.

With `CC(C)(C)C(=O)Nc1ccccc1-c1cc2ccccc2[nH]1`, the melting point was 132 to 136 °C.

Compound `COC(CN/C=C\C(=C(C#N)C#N)c1ccc2cc(N(C)C)ccc2c1)OC` registered a melting point of 158 to 159 °C.

As to `O=C(Cc1noc2ccccc12)NS(=O)(=O)c1ccccc1`, the melting point fell in the range of 171 to 172 °C.

In turn, `COc1cc(OCc2ccccn2)ccc1/C=C/c1cc(/C=C/c2cccc3cc[nH]c23)n[nH]1` showed a melting point of 99 to 110 °C.

`CCCCOc1cc(CCS(=O)(=O)NC(=O)OC(C)C)n(Cc2ccc(Cl)cc2Cl)n1` displayed a melting point of 120 to 121 °C.

As to `Cc1c(CC(C)(C)C(=O)O)n(Cc2ccc(Cl)cc2)c2ccc(OCc3ccc4ccc(Cl)cc4n3)cc12`, the melting point lay within 105 to 107 °C.

Compound `CN(CCc1cccs1)C(=O)C12CC3CC(CC(C3)C1)C2` returned a melting point of 95 to 99 °C.

With `CCCCOc1cc(CO)cc(N)c1Cc1ccccc1`, the melting point was 105 to 107 °C.

`NC(=O)N1CCCC1COc1cncc(Cl)c1` (stereo not drawn) gave a melting point of 95 °C.

The compound `Cc1nc2c(OCc3ccccc3)cc(C(=O)N(C)C)cc2n1COCC[Si](C)(C)C` yielded a melting point of 118 to 120 °C.

Compound `CSc1cc2c(cc1C(F)(F)F)N(C(=O)Nc1cccc(C(=O)N(C)CCN(C)C)c1)CC2` had a melting point of 140 to 141 °C.

`O=C(O)c1cc(Cl)c(Cl)c2c1OCC(CO)O2` (stereo not drawn) displayed a melting point of 175 to 177 °C.

On to `Cc1c(C(=O)CC(C)C)cc2c(c1C)OC(C(=O)O)C2` (stereo not drawn), for which the melting point stood at 117 °C.

Consider `FC(F)(F)Oc1ccc(/C=C/c2ccc(CBr)cc2)cc1`, for which the melting point lay within 100 to 102 °C.

The compound `CSC(=N)Nc1c(C)cccc1Cl` showed a melting point of 183 to 184 °C.

Compound `CCOC(=O)c1cn(CC)c2nc(N3CCN(C(C)=O)CC3)ncc2c1=O` gave a melting point of 208 to 210 °C.

In turn, `COc1ccc(S(=O)(=O)n2ccc3ccnc(N(C)C)c32)cc1` yielded a melting point of 155 to 158 °C.

On to `CC(C)Cc1nn(C)c(=O)c2cc(Cc3cccnc3)sc12`, for which the melting point is 118 to 119 °C.

Consider `Cc1cc(COc2ccc3nc(NC(=O)NCCN4CCOCC4)sc3c2)n(C)n1`, for which the melting point was 160 °C.

Take `CC(C)(C)OC(=O)n1cnc(CN2C[C@@H](Cc3ccccc3)N(S(C)(=O)=O)Cc3cc(C#N)ccc32)c1`: the melting point is 150 to 151 °C.

`Cc1ccc(C2CC(C(F)(F)F)=NN2c2ccc(S(N)(=O)=O)cc2)cc1` (stereo not drawn) showed a melting point of 140 to 143 °C.

`CCNC(=O)NCCNc1nc(-c2ccc(F)cc2C)c2ccc(=O)n(-c3c(F)cccc3F)c2n1` yielded a melting point of 130 to 133 °C.

`COc1cc(C(=O)NS(=O)(=O)c2ccccc2Cl)ccc1Cn1cc(/C=C/C(=O)N2CCCC2)c2ccc(/C=C/C(=O)N3CCCC3)cc21` showed a melting point of 291 to 293 °C.

In turn, `O=C1CCC(c2ccc3c(c2)CCC2(CCN(C4CCC4)CC2)O3)=NN1` showed a melting point of 242 to 244 °C.

Turning to `CCN(CC)C/C=C/c1ccc2c(Nc3ccc(Sc4nccn4C)c(Cl)c3)c(C#N)cnc2c1`, the melting point lay within 223 to 228 °C.

The compound `Cc1nc(-c2sc(-c3ccc(Cl)cc3)nc2C)sc1C(=O)N[C@H](C)[C@](O)(Cn1cncn1)c1ccc(F)cc1F` displayed a melting point of 110 to 114 °C.

`CCN(CC)C(=O)n1cnc(S(=O)(=O)CC2CCCCC2)n1` had a melting point of 40 to 46 °C.

`c1ccc(-c2ccc(N(c3ccccc3)c3ccccc3)cc2)cc1` came in with a melting point of 117 to 118 °C.

As for `CCCCN(Cc1ccc(-c2ccccc2-c2nnn[nH]2)cc1)c1ncncc1C(=O)OCC`, the melting point is 109 to 111 °C.

Regarding `CCCN(C1CC(C)(C)Oc2ccc(O)cc21)S(=O)(=O)CC` (stereo not drawn), the melting point lay within 173 to 175 °C.

Consider `CCC(=O)NCC1CC1c1cccc2nc(C(F)(F)F)cn12` (stereo not drawn), for which the melting point is 148 to 151 °C.

With `CN(C)C(=O)Nc1cc(CNc2ccccc2C(=O)Nc2ccc3cn(C)nc3c2)ccn1`, the melting point was 184 °C.

The compound `CC(C)(Cn1cnc2c(N)nc3c(c21)CCCC3)OCCS(C)(=O)=O` returned a melting point of 219 to 223 °C.

In the case of `Cc1cc(Oc2ccccc2)ccc1C(=O)CBr`, the melting point lay in the range of 60 to 61 °C.

Compound `CCC(C)c1cc(Cl)cc(Cl)c1OCC(=O)N1CCSC1=S` (stereo not drawn) had a melting point of 96 °C.

Take `Oc1ccc(-c2ncc3ncc(-c4ccc(S)cc4)cc3n2)cc1`: the melting point was in the range of 222 to 223 °C.

In the case of `CN(C)c1ccc(Cn2cnc3c(Cl)ncnc32)cc1`, the melting point was 125 to 127 °C.

`CCCC(=O)N(Cc1ccc(-c2ccccc2-c2nnn[nH]2)cc1)C(C)(C)C(=O)O` yielded a melting point of 187 to 189 °C.

On to `Oc1ccc(C#Cc2ccccc2)cc1`, for which the melting point is 83 to 84 °C.

`Cc1ccc(S(=O)(=O)OCC2Cc3cc(Cl)cc(-c4cccc(Cl)c4)c3O2)cc1` (stereo not drawn) came in with a melting point of 80 to 82 °C.

`CC(O)c1cc2c(OCC(O)CN3CCC(c4ccc5ccccc5c4)CC3)cccc2o1` (stereo not drawn) had a melting point of 143 to 144 °C.

For `NC(=O)N(O)C[C@H]1C[C@@H](c2ccc(C(F)(F)F)cc2)C1`, the melting point lay within 144 to 146 °C.

`CC(C)(C)c1ccc(SCCCCCOc2ccc(C3=C(c4ccccc4)CCCc4cc(O)ccc43)cc2)cc1`: the melting point stood at 139 °C.

In turn, `Cc1cc2c(cc1Cl)C(c1ccccc1)(N1CCOCC1)ON2C(C)(C)C` (stereo not drawn) showed a melting point of 131 to 133 °C.

Turning to `CCCCc1nc2c(N)nc3ccccc3c2n1CCCC(=NOC)c1ccccc1`, the melting point is 198 to 200 °C.

Compound `Cc1nnc2nc(-c3ccccc3)ccn12` returned a melting point of 303 to 306 °C.

For `COC(=O)c1ccc(Cc2cccc3ccc(C(=O)O)cc23)c(OC)c1`, the melting point fell in the range of 229 to 230 °C.

`CN1Cc2c(C#CC(C)(C)O)ncn2-c2ccccc2C1=O` showed a melting point of 168 to 169 °C.

As for `Cn1nc(-c2ccc3c(c2)OCO3)c(-c2ccncc2)c1NC(=O)Cc1ccccc1`, the melting point is 128 to 132 °C.

As to `O=C(O)c1csc(C(F)F)c1`, the melting point lay within 131 to 132 °C.

In turn, `CS(=O)(=O)c1ccc(-c2sc(-c3ccccc3Cl)nc2-c2ccccc2)cc1` displayed a melting point of 192 to 195 °C.

In turn, `C=CCN1Cc2cc(Br)ccc2C1=O` yielded a melting point of 58 to 60 °C.

For `Cc1cc(-c2ccccc2)n2nc(N)nc2n1`, the melting point lay within 246 to 250 °C.

As for `O=c1ccn(-c2cccc(Oc3nc4ccccc4[nH]3)c2)nc1-c1ccnn1-c1ccccc1`, the melting point fell in the range of 149 to 150 °C.

The compound `Cc1ccc(N)cc1S(=O)(=O)Nc1onc(C)c1C` yielded a melting point of 204 to 205 °C.

In the case of `Cc1cc(Cl)ccc1N1CCCNC1=S`, the melting point is 266 to 268 °C.

In the case of `Cc1cc(C(F)(F)F)nn1CC(=O)N1CCC(c2nc(NC(=O)C3=C(O)CCCC3=O)cs2)CC1`, the melting point lay in the range of 102 to 105 °C.

In turn, `O=C(O)COc1cc2cc(CO)sc2c(Cl)c1Cl` displayed a melting point of 188 °C.

Compound `N#CCCn1ccc(NC(=S)NCC(F)(F)F)n1` displayed a melting point of 164 to 165 °C.

On to `CCOc1cc2ncc(C#N)c(Nc3ccc4c(c3)C(=O)OC4)c2cc1OCC`, for which the melting point lay within 280 to 284 °C.

Compound `Cc1ccc(S(=O)(=O)N[C@@H]2CCCC[C@H]2N)cc1` (relative stereo) returned a melting point of 93 to 95 °C.

In the case of `Cc1c(NC(=O)OCc2ccccc2)cccc1C(C[N+](=O)[O-])c1c[nH]c2cc(N3CCOCC3)ccc12` (stereo not drawn), the melting point is 137 °C.

`COc1cc(OC)c(C=O)cn1`: the melting point was in the range of 97 to 98 °C.

`CN1CCCC1=NC(=O)Nc1cc(Cl)cc(Cl)c1` had a melting point of 157 to 159 °C.

In turn, `Cc1cc2ncc(Cl)nc2cc1C` displayed a melting point of 103 °C.

As for `CCCCC(=O)N(c1ccn(C)n1)C1CCCCC1`, the melting point lay within 97.5 to 98 °C.

`COc1ccc(C(=O)C2=C(c3ccccc3)c3ccccc3S2=O)cc1` (stereo not drawn): the melting point was in the range of 118 to 120 °C.

`COC(=O)CCS(=O)(=O)c1ccc(NC(C)=O)cc1` yielded a melting point of 156 to 158 °C.

With `OCc1nnc2ccc(-c3cccc(C(F)(F)F)c3)nn12`, the melting point lay within 224 to 226 °C.

Turning to `O=C(O)c1ccc2c(c1)nc(-c1ccc(Oc3cccc(Br)c3)cc1)n2C1CCCCC1`, the melting point lay within 255 to 256 °C.

Compound `CC(C)(Oc1ccc(CCN)cc1)C(=O)O` showed a melting point of 187 to 189 °C.

`CCNC(=O)c1ccc(-c2ccc3c(c2)C(Nc2ccc(Cl)cc2)CC(C)N3C(C)=O)cc1` (stereo not drawn) yielded a melting point of 134 °C.

`Cc1c(C(=O)Nc2ccc(N3CCC(N4CCOCC4)CC3)c(Br)c2)cnn1-c1ccc(Cl)cc1` showed a melting point of 205 to 210 °C.

The compound `CCC(=O)N1CCc2cc(O)c(OC)cc2C1` returned a melting point of 116 to 118 °C.

The compound `CC(=O)Nc1ccc(S(=O)(=O)N2CCN(c3c(F)cc4c(=O)c(C(=O)O)cn(C5CC5)c4c3F)CC2)cc1` displayed a melting point of 282 to 284 °C.

Compound `O=C(O)c1ccc(N2Cc3ccccc3C2=O)cc1` had a melting point of more than 295 °C.

Compound `O=C(CCC(=O)c1ccc(CCNS(=O)(=O)c2ccccc2)cc1)Nc1nnn[nH]1` registered a melting point of 241 to 242 °C.

Compound `COc1ccccc1CCC1CCCCn2c1nc(-c1ccncn1)cc2=O` (racemic) displayed a melting point of 155 to 157 °C.

Compound `CC(C)(C)Cc1c(CC(C)(C)C(=O)O)n(Cc2ccc(Cl)cc2)c2ccc(OCc3ccc4sccc4n3)cc12` yielded a melting point of 187 to 188 °C.

Regarding `CC(COc1ccc(-n2nc3c(cc2=O)CCc2ccc(F)cc2-3)cc1)N(C)C` (stereo not drawn), the melting point lay in the range of 178 to 180 °C.

Take `CCOC=C(C(C)=O)C(=O)NCc1ccc(Cl)cc1`: the melting point was in the range of 103 to 105 °C.

Consider `Cn1cncc1C(O)(c1ccc2c(c1)c(-c1cccc(Cl)c1)cc(=O)n2C)c1nccs1` (stereo not drawn), for which the melting point is 246 °C.

On to `O=C(NCCc1cccs1)C1CC2C=CC1C2` (stereo not drawn), for which the melting point fell in the range of 71 to 72 °C.

On to `N#Cc1sc2ncccc2c1Cl`, for which the melting point fell in the range of 144 to 145 °C.

`O=Cc1ccccc1SSc1ccccc1C=O` displayed a melting point of 145 °C.

The compound `Cc1onc2c(=O)[nH]nc(-c3ccc(O)cc3)c12` displayed a melting point of 268 to 276 °C.

Turning to `O=C(O)c1cc2ccc3c(c2c(-c2ccc4c(c2)OCO4)c1COCc1ccccc1)OCO3`, the melting point lay in the range of 219 to 221 °C.
